Assay results taken from patent US5541175A, “Cephalosporin antibiotics” (Lucky, Ltd., priority 1993, dated 1996).
Converted amounts (≈) assume the structure as drawn. Where two headings read alike, the source gives them in different places.

How the values were obtained:
[1] = tested on: Acinetobacter calcoaceticus 15473A; assay: Minimum inhibitory concentration (agar 2-fold dilution); format: cell-based; details: A. calcoaceticus 15473A, Muller-Hinton agar, 37° C., 20 hours, read-out: Minimum Inhibitory Concentration
Procedure: (§1) The minimum inhibitory concentration was determined by diluting the test compounds according to 2-fold dilution, suspending them in Muller-Hinton agar medium, inoculating 2 μl of the suspension containing the test strains having 10^7 CFU (Colony Forming Unit) per 1 ml into the medium and then culturing the test strains at 37° C. for 20 hours.

[2] = tested on: Citrobacter diversus 2046E; assay: as above; format: cell-based; details: Citrobacter koseri; C. diversus 2046E; Muller-Hinton agar, 37° C., 20 hours; read-out: Minimum Inhibitory Concentration
Procedure: as §1

[3] = tested on: Enterobacter cloacae IND + VE 1194E; assay: as above; format: cell-based; details: E. cloacae IND + VE 1194E, Muller-Hinton agar, 37° C., 20 hours, read-out: Minimum Inhibitory Concentration
Procedure: as §1

[4] = tested on: Enterobacter cloacae P99; assay: as above; format: cell-based; details: P99, 20 h, read-out: Minimum Inhibitory Concentration
Procedure: as §1

[5] = tested on: Escherichia coli 10536; assay: as above; format: cell-based; details: Escherichia coli; E. coli 10536; Muller-Hinton agar, 37° C., 20 hours; read-out: Minimum Inhibitory Concentration
Procedure: as §1

[6] = tested on: Escherichia coli 3190Y; assay: as above; format: cell-based; details: read-out: Minimum Inhibitory Concentration
Procedure: as §1

[7] = tested on: Escherichia coli 851E; assay: as above; format: cell-based; details: E. coli 851E, Muller-Hinton agar, 37° C., 20 hours
Procedure: as §1

[8] = tested on: Escherichia coli TEM1 1193E; assay: as above; format: cell-based; details: TEM11193E, 20 h, read-out: Minimum Inhibitory Concentration
Procedure: as §1

[9] = tested on: Escherichia coli TEM3 3455E; assay: as above; format: cell-based; details: TEM33455E, 20 h, read-out: Minimum Inhibitory Concentration
Procedure: as §1

[10] = tested on: Escherichia coli TEM5 3739E; assay: as above; format: cell-based; details: TEM53739E, 20 h, read-out: Minimum Inhibitory Concentration
Procedure: as §1

[11] = tested on: Escherichia coli TEM7 3457E; assay: as above; format: cell-based; details: TEM73457E, 20 h, read-out: Minimum Inhibitory Concentration
Procedure: as §1

[12] = tested on: Escherichia coli TEM9 2639E; assay: as above; format: cell-based; details: TEM92639E, 20 h, read-out: Minimum Inhibitory Concentration
Procedure: as §1

[13] = tested on: Klebsiella aerogenes K1 + 1082E; assay: as above; format: cell-based; details: 20 h, read-out: Minimum Inhibitory Concentration
Procedure: as §1

[14] = tested on: Klebsiella aerogenes SHV-1 1976E; assay: as above; format: cell-based; details: SHV11976E, K. aerogenes SHV-1 1976E, Muller-Hinton agar, 37° C., 20 hours
Procedure: as §1

[15] = tested on: Proteus vulgaris 6059A; assay: as above; format: cell-based; details: P. vulgaris 6059A, Muller-Hinton agar, 37° C., 20 hours, read-out: Minimum Inhibitory Concentration
Procedure: as §1

[16] = tested on: Pseudomonas aeruginosa 10145; assay: as above; format: cell-based; details: Pseudomonas aeruginosa; P. aeruginosa 10145; Muller-Hinton agar, 37° C., 20 hours; read-out: Minimum Inhibitory Concentration
Procedure: as §1

[17] = tested on: Pseudomonas aeruginosa 1912E; assay: as above; format: cell-based; details: P. aeruginosa 1912E, Muller-Hinton agar, 37° C., 20 hours, read-out: Minimum Inhibitory Concentration
Procedure: as §1

[18] = tested on: Pseudomonas aeruginosa 6065; assay: as above; format: cell-based; details: Pseudomonas aeruginosa; P. aeruginosa 6065; Muller-Hinton agar, 37° C., 20 hours; read-out: Minimum Inhibitory Concentration
Procedure: as §1

[19] = tested on: Salmonella typhimurium 14028A; assay: as above; format: cell-based; details: Salmonella enterica; S. typhimurium 14028A; Muller-Hinton agar, 37° C., 20 hours; read-out: Minimum Inhibitory Concentration
Procedure: as §1

[20] = tested on: Serratia marcescens 1826E; assay: as above; format: cell-based; details: S. marcescens 1826E, Muller-Hinton agar, 37° C., 20 hours, read-out: Minimum Inhibitory Concentration
Procedure: as §1

[21] = tested on: Staphylococcus aureus 241; assay: as above; format: cell-based; details: Staphylococcus aureus; S. aureus 241; Muller-Hinton agar, 37° C., 20 hours; read-out: Minimum Inhibitory Concentration
Procedure: as §1

[22] = tested on: Staphylococcus aureus 6538P; assay: as above; format: cell-based; details: S. aureus 6538P, Muller-Hinton agar, 37° C., 20 hours, read-out: Minimum Inhibitory Concentration
Procedure: as §1

[23] = tested on: Staphylococcus aureus 77; assay: as above; format: cell-based; details: Staphylococcus aureus; S. aureus 77; Muller-Hinton agar, 37° C., 20 hours; read-out: Minimum Inhibitory Concentration
Procedure: as §1

[24] = tested on: Staphylococcus aureus epidermidis 887E; assay: as above; format: cell-based; details: S. aureus epidermidis 887E, Muller-Hinton agar, 37° C., 20 hours, read-out: Minimum Inhibitory Concentration
Procedure: as §1

[25] = tested on: Staphylococcus aureus giorgio; assay: as above; format: cell-based; details: read-out: Minimum Inhibitory Concentration
Procedure: as §1

[26] = tested on: Streptococcus faecalis 29212A; assay: as above; format: cell-based; details: Enterococcus faecalis; S. faecalis 29212A; Muller-Hinton agar, 37° C., 20 hours; read-out: Minimum Inhibitory Concentration
Procedure: as §1

[27] = Pharmacokinetic properties in rats (blood concentration by agar well biological assay); design: species or system SD rats (male); details: rat, in vivo, iv, 20 mg/kg
Procedure: The pharmacokinetic properties of the compound of the present invention were determined using SD rats (.male.) weighing 230±10 g. Specifically,the test samples were injected into femoral vein in an amount of 20 mg/kg to 4 to 5 test animals. Blood was taken from femoral vein 1, 2.5, 5, 10, 20, 40, 60, 120 and 180 minutes after administration and then subjected to a biological assay using agar well method to measure the blood concentration.

Compound | MIC [1] | MIC [2] | MIC [3] | MIC [4] | MIC [5] | MIC [7] | MIC [8] | MIC [9] | MIC [10] | MIC [11] | MIC [12] | MIC [13] | MIC [14] | MIC [15] | MIC [16] | MIC [17] | MIC [18] | MIC [19] | MIC [20] | MIC [21] | also measured
Nc1cc(N)[n+](C/C=C/C2=C(C(=O)[O-])N3C(=O)[C@@H](NC(=O)/C(=N\O[C@H](C(=O)O)c4ccc(O)c(O)c4)c4csc(N)n4)[C@H]3SC2)cn1 [Compound I-1a, 7-[(Z)-2-(2-aminothiazol-4-yl)-2-(α-carboxy-3,4-dihydroxybenzyloxyimino)acetamido]-3-[(E)-3-(4,6-diaminopyrimidinium-1-yl)-1-propen-1-yl]-3-cephem-4-carboxylate] | 1 mg/L (≈ 1.46 µM) | 0.13 mg/L (≈ 0.19 µM) | 4 mg/L | 32 mg/L (≈ 46.8 µM) | ≤ 0.008 mg/L | 0.031 mg/L (≈ 0.0453 µM) | 0.031 mg/L (≈ 0.0453 µM) | 0.13 mg/L (≈ 0.19 µM) | 0.5 mg/L (≈ 0.731 µM) | 0.13 mg/L (≈ 0.19 µM) | 2 mg/L (≈ 2.93 µM) | 0.063 mg/L (≈ 0.0921 µM) | 0.13 mg/L (≈ 0.19 µM) | 0.063 mg/L (≈ 0.0921 µM) | 0.25 mg/L (≈ 0.366 µM) | 0.5 mg/L (≈ 0.731 µM) | 1 mg/L (≈ 1.46 µM) | 0.016 mg/L (≈ 0.0234 µM) | 0.25 mg/L (≈ 0.366 µM) | 64 mg/L (≈ 93.6 µM) | MIC ([6]; E. coli 3190Y, Muller-Hinton agar, 37° C., 20 hours): 0.031 mg/L (≈ 0.0453 µM); MIC [22]: 0.5 mg/L (≈ 0.731 µM); MIC [23]: 4 mg/L (≈ 5.85 µM); MIC [24]: 64 mg/L (≈ 93.6 µM); MIC ([25]; S. aureus giorgio, Muller-Hinton agar, 37° C., 20 hours): 0.5 mg/L (≈ 0.731 µM); MIC [26]: 4 mg/L (≈ 5.85 µM); AUC [27]: 32.7 µg·h/mL; half-life [27]: 34 min
Nc1cc[n+](C/C=C/C2=C(C(=O)[O-])N3C(=O)[C@@H](NC(=O)/C(=N\O[C@H](C(=O)O)c4ccc(O)c(O)c4)c4csc(N)n4)[C@H]3SC2)cn1 [Compound I-2a, 7-[(Z)-2-(2-aminothiazol-4-yl)-2-(α-carboxy-3,4-dihydroxybenzyloxyimino)acetamido]-3-[(E)-3-(4-aminopyrimidinium-1-yl)-1-propen-1-yl]-3-cephem-4-carboxylate] | 0.5 mg/L (≈ 0.748 µM) | 0.13 mg/L (≈ 0.194 µM) | 1 mg/L | 8 mg/L (≈ 12 µM) | 0.016 mg/L (≈ 0.0239 µM) | 0.063 mg/L (≈ 0.0942 µM) | 0.063 mg/L (≈ 0.0942 µM) | 0.063 mg/L (≈ 0.0942 µM) | 0.5 mg/L (≈ 0.748 µM) | 0.031 mg/L (≈ 0.0464 µM) | 1 mg/L (≈ 1.5 µM) | 0.13 mg/L (≈ 0.194 µM) | 0.5 mg/L (≈ 0.748 µM) | 0.063 mg/L (≈ 0.0942 µM) | 0.25 mg/L (≈ 0.374 µM) | 0.5 mg/L (≈ 0.748 µM) | 4 mg/L (≈ 5.98 µM) | 0.03 mg/L (≈ 0.0449 µM) | 0.5 mg/L (≈ 0.748 µM) | 128 mg/L (≈ 191 µM) | MIC ([6]; 3190Y, 20 h): 0.063 mg/L (≈ 0.0942 µM); MIC [22]: 0.5 mg/L (≈ 0.748 µM); MIC [23]: 4 mg/L (≈ 5.98 µM); MIC [24]: 32 mg/L (≈ 47.9 µM); MIC ([25]; 20 h): 0.25 mg/L (≈ 0.374 µM); MIC [26]: 4 mg/L (≈ 5.98 µM); AUC [27]: 53.6 µg·h/mL; half-life [27]: 55 min
